Common to all, as to assay type: in vivo
Assay [1] relates to C57BL/6 mice maintaining normal blood glucose levels. In words: Insulin absorption upon topical (skin) application, blood glucose change. The conditions noted are these: 50 μl on shaved skin, with mixture of taurocholate and SEQ6; FIG. 8. The source says: Examination was made of the change in insulin absorption upon topical application due to bile salts and/or peptides represented by SEQ ID NO: 1 to SEQ ID NO: 18. The absorption rate of insulin was indicated by measuring the blood glucose-lowering rate after insulin administration. Specifically, C57BL/6 mice maintaining normal blood glucose levels were shaved on the back using a depilatory cream the day before the experiment. On the day of the experiment, the mice were anesthetized by intraperitoneal injection of Ketamine/Xylazine (100 mg/kg and 10 mg/kg, respectively). After confirming stable anesthesia, blood glucose levels were measured using an Accu-Chek glucometer before administering insulin with bile salts and/or cationic peptides. A 50 μl volume of the solution was applied to the shaved skin, and blood glucose changes were measured over time.

Assay [2] shares this test system. The assay can be described thus: Insulin absorption upon oral administration (into the stomach using a zonde), blood glucose lowering. To be noted: 100 mM taurocholate + 2U/kg insulin + 0.1, 1, 10 μM SEQ6 or 1, 10, 100 μM SEQ2; FIG. 2. The protocol:
Examination was made of the change in insulin absorption upon oral administration of bile salts and/or peptides represented by SEQ ID NOS: 1 to 18. The absorption rate of insulin was indicated by measuring the blood glucose-lowering rate after insulin administration.
Specifically, C57BL/6 mice maintaining normal blood glucose levels were prepared, and blood glucose levels were measured using an Accu-Chek glucometer before administering insulin with bile salts and/or cationic peptides. Insulin, along with bile salts and/or cationic peptides, was administered directly into the stomach using a zonde, and blood glucose changes were measured over time.

For assay [3] the test system is unchanged. In words: Insulin absorption in sublingual mucosal tissue, blood glucose lowering after sublingual administration. To be noted: sublingual 10 μl; 100 mM taurocholate and/or 1 μM SEQ6 with 2U/kg insulin; FIG. 1. How it is done:
All cationic peptides used in the experiment were synthesized by AnyGen Co., Ltd. The absorption rate of insulin was indicated by measuring the blood glucose-lowering rate after insulin administration.
Specifically, C57BL/6 mice (Orient Bio, Korea) maintaining normal blood glucose levels were anesthetized by intraperitoneal injection of Ketamine/Xylazine (100 mg/kg and 10 mg/kg, respectively) (BK Pharm, Korea). […] Each experimental group received 10 μl of the solution administered to the sublingual mucosa, and blood glucose changes were measured over time.

Non-standard residues stand in square brackets, D forms with d. No end group written: not given here.

With “insulin: insulin (Humulin N, Korea Lilly, Korea)”, the “blood glucose-lowering effect of insulin upon topical application” value in assay [1] is “excellent blood glucose-lowering effect”.
On to RRRRRR [SEQ2], for which the “insulin absorption (blood glucose-lowering effect) upon oral administration” value in assay [2] is “significantly increases in a dose-dependent manner”.
As for “rrrrrr ([dR][dR][dR][dR][dR][dR]) [SEQ6]”, the “insulin absorption (blood glucose-lowering effect) upon oral administration” value in assay [2] was “significantly increases in a dose-dependent manner”. Moreover, the “blood glucose-lowering rate by insulin (insulin absorption through sublingual mucosal tissue)” value in assay [3] is reported as “low”.

For the origin of these results see patent publication US20250205341A1, “PROTEIN DELIVERY COMPOSITION CONTAINING BILE SALT AND CATIONIC PEPTIDE AND USE THEREOF” (BION INC., priority 2022, published 2025).
